Activity calls are given as the source filed them.
What was measured:
Type in all cases: functional, organism-based
[1] = system: Escherichia coli; assay: Antibacterial activity against Escherichia coli HB101 after 4 days by serial dilution test
[2] = system: Staphylococcus aureus; assay: Antibacterial activity against Staphylococcus aureus ATCC 25923 after 4 days by serial dilution test
[3] = system: Bacillus subtilis; assay: Antibacterial activity against Bacillus subtilis 168 after 4 days by serial dilution test; details: subsp. subtilis str. 168
[4] = system: Candida albicans; assay: Antifungal activity against Candida albicans after 4 days by serial dilution test
[5] = system: Spodoptera littoralis; assay: Insecticidal activity against Spodoptera littoralis larvae administered through artificial diet by chronic feeding assay

Measured: Activity

O=C1CCC(=O)c2c1c(O)c(O)c1c2-c2ccc(O)c3c(O)ccc-1c23
inactive: [1] | [2] | [3] | [4] | [5]
